This experiment relates to SOCS1+/+ or SOCS1+/− CD4+CD25− T cells. Description: CD4+ T cell activation (CD25 expressing cells, flow cytometry) after αCD3 stimulation. The experiment is classed as cell-based, mouse. The conditions noted are these: αCD3 + SOCS1-KIR peptide (20 μM), 72 h. As for the experimental part: FIGS. 5A-5D. […] (FIGS. 5A and 5B) SOCS1^+/+ or SOCS1^+/− CD4^+CD25^− T cells were stimulated with αCD3 antibodies alone or with αCD3+SOCS1-KIR peptide (20 μM) for 72 h. (FIG. 5A) CD25 expressing cells were assessed by flow cytometry. Results are representative of 4 independent experiments. (FIG. 5B) Proliferation was assessed by CFSE labeling and flow cytometry, cell counts, and ^3[H] thymidine incorporation. n=4. (FIGS. 5C and 5D) SOCS1^+/+ or SOCS1^+/− CD4^+CD25^− T cells were placed under Th17 inducing conditions in the absence or presence of SOCS1-KIR peptide (20 μM) (FIG. 5C) IFNγ expression, relative to β-actin., was assessed by qPCR (left) and ELISA (right) (n=4). (FIG. 5D) pSTAT1 and STAT1 protein expressions were assessed by western blotting. […]
CD4^+ T cell proliferation was assessed by CFSE staining, ^3H thymidine incorporation, and absolute cell counts. […] After 72 h of incubation, cell cultures were either pulsed with 0.5 mCi ^3H thymidine (GE Healthcare; Arlington Heights, Ill.) or counted and harvested for assessment by flow cytometry. In cultures analyzed by flow cytometry, T lymphocytes were labeled with 10 μg/ml CFSE prior to culture as previously described (Cozzo et al. 2003). ^3H thymidine pulsed T lymphocytes were harvested 16-18 hours after initial pulse followed by the ^3H thymidine incorporation assessment using a Beckman LS3801 Liquid Scintillation System. […]
On the technique in general: A flow cytometer gives signals particle by particle.

In the case of “DTHFRTFRSHSDYRRI (SOCS1-KIR peptide) [SOCS1 mimetic peptide corresponding to the KIR region of SOCS1]”, under “SOCS1+/− CD4+ T lymphocytes”, the “αCD3 mediated CD25 up-regulation” value is reported as “sufficient to inhibit excessive αCD3 mediated CD25 up-regulation”. The CD25 expression entry (WT (SOCS1+/+) CD4+ T lymphocytes) is reported as “limited effects on CD25 expression”.

The values above are taken from US11603387B2, “SOCS mimetics for the treatment of diseases” (UNIVERSITY OF FLORIDA RESEARCH FOUNDATION, INC., priority 2014, dated 2023).
